pKi: −log10 of the molar value.
Molecular target: HPK1 (Homo sapiens (Human), UniProt Q92918)
Assay: HPK1 Kinase Binding Assay
How it was run: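 This is a LanthaScreen tracer-binding format: a tracer 222/Eu-anti-GST antibody mix (18 nM and 4 nM solution) is added to active HPK1 (4 nM solution) with 3-fold, 11-point compound dilutions. Incubation is 1 h at 25 °C in HEPES pH 7.5 buffer before reading, and Ki is determined.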

HPK1, sequence (Q92918 1-346): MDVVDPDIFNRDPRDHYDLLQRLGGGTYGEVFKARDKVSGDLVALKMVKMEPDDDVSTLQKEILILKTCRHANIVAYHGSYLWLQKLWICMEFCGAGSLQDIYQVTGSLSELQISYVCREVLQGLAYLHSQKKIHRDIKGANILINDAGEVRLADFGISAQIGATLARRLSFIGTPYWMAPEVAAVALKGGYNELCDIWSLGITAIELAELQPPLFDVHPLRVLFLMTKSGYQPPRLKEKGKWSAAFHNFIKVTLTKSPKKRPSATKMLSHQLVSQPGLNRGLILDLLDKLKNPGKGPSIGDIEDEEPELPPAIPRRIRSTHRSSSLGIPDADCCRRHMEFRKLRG

Compound `COC1CN(Cc2cc(C)c(-c3cc4c(-c5cnn(C)c5)n[nH]c4cn3)c(F)c2)C1` [Example 185, 5-(2-Fluoro-4-((3-methoxyazetidin-1-yl)methyl)-6-methylphenyl)-3-(1-methyl-1H-pyrazol-4-yl)-1H-pyrazolo[3,4-c]pyridine] has a pKi of no less than 7.00.

`CCNCc1cccc(-c2cc3c(-c4cnn(C)c4)n[nH]c3cn2)c1C(F)(F)F` [Example 237, N-(3-(3-(1-Methyl-1H-pyrazol-4-yl)-1H-pyrazolo[3,4-c]pyridin-5-yl)-2-(trifluoromethyl)benzyl)ethanamine] gave a pKi of no less than 7.00.

`CCOc1cccc(F)c1-c1cc2c(-c3ccc(N4CCN(C)CC4)cc3)n[nH]c2cn1` [Example 51, 5-(2-Ethoxy-6-fluorophenyl)-3-(4-(4-methylpiperazin-1-yl)phenyl)-1H-pyrazolo[3,4-c]pyridine] showed a pKi of no less than 7.00.

Work on `CNC(=O)c1ccc(-c2n[nH]c3cnc(-c4c(F)cc5c(c4F)C(NC)CC5)cc23)cc1` (centres unmarked) [Example 204, 4-(5-(4,6-Difluoro-3-(methylamino)-2,3-dihydro-1H-inden-5-yl)-1H-pyrazolo[3,4-c]pyridin-3-yl)-N-methylbenzamide] yielded a pKi of no less than 7.00.

`COc1cccc(F)c1-c1cc2c(NC(=O)c3ccccc3)n[nH]c2cn1` [Example 1, N-(5-(2-Fluoro-6-methoxyphenyl)-1H-pyrazolo[3,4-c]pyridin-3-yl)benzamide] showed a pKi of no less than 7.00.

For `Cc1cc(NC(=O)CN(C)C)cc(F)c1-c1cc2c(-c3cnn(C)c3)n[nH]c2cn1` [Example 81, 2-(Dimethylamino)-N-(3-fluoro-5-methyl-4-(3-(1-methyl-1H-pyrazol-4-yl)-1H-pyrazolo[3,4-c]pyridin-5-yl)phenyl)acetamide], the pKi was no less than 7.00.

`Cc1cc(NC(=O)CCN(C)C)cc(F)c1-c1cc2c(-c3cnn(C)c3)n[nH]c2cn1` [Example 84, 3-(Dimethylamino)-N-(3-fluoro-5-methyl-4-(3-(1-methyl-1H-pyrazol-4-yl)-1H-pyrazolo[3,4-c]pyridin-5-yl)phenyl)propanamide] showed a pKi of no less than 7.00.

In the case of `CNCc1cc(F)c(-c2cc3c(-c4ccc(N5CCC(F)C5)cn4)n[nH]c3cn2)c(F)c1` (centres unmarked) [Example 167, 1-(3,5-Difluoro-4-(3-(5-(3-fluoropyrrolidin-1-yl)pyridin-2-yl)-1H-pyrazolo[3,4-c]pyridin-5-yl)phenyl)-N-methylmethanamine], the pKi was no less than 7.00.

Compound `CNc1ccc(F)c(-c2cc3c(-c4cnn(C)c4)n[nH]c3cn2)c1F` [Example 61, 2,4-Difluoro-N-methyl-3-(3-(1-methyl-1H-pyrazol-4-yl)-1H-pyrazolo[3,4-c]pyridin-5-yl)aniline] has a pKi of no less than 7.00.

Compound `CNC(=O)c1cn(-c2n[nH]c3cnc(-c4c(F)cccc4OC)cc23)cn1` [Example 105, 1-(5-(2-Fluoro-6-methoxyphenyl)-1H-pyrazolo[3,4-c]pyridin-3-yl)-N-methyl-1H-imidazole-4-carboxamide] has a pKi of no less than 7.00.

`CNC1CCc2cc(F)c(-c3ncc4[nH]nc(-c5cnn(C)c5)c4c3OC)c(F)c2C1` (centres unmarked) [Example 214, 6,8-Difluoro-7-(4-methoxy-3-(1-methyl-1H-pyrazol-4-yl)-1H-pyrazolo[3,4-c]pyridin-5-yl)-N-methyl-1,2,3,4-tetrahydronaphthalen-2-amine] gave a pKi of no less than 7.00.

For `CNC1CCc2cc(F)c(-c3cc4c(-c5ccc(N6CCN(C)CC6)cc5)n[nH]c4cn3)c(F)c21` (centres unmarked) [Example 205, 5,7-Difluoro-N-methyl-6-(3-(4-(4-methylpiperazin-1-yl)phenyl)-1H-pyrazolo[3,4-c]pyridin-5-yl)-2,3-dihydro-1H-inden-1-amine], the pKi was no less than 7.00.

Compound `CNCc1cc(C)c(-c2cc3c(-c4cccc(N5CCOCC5)n4)n[nH]c3cn2)c(F)c1` [Example 117, 1-(3-Fluoro-5-methyl-4-(3-(6-morpholinopyridin-2-yl)-1H-pyrazolo[3,4-c]pyridin-5-yl)phenyl)-N-methylmethanamine] has a pKi of no less than 7.00.

In the case of `COc1cccc(F)c1-c1cc2c(NC(=O)c3cccc(N4CCOCC4)c3)n[nH]c2cn1` [Example 16, N-(5-(2-Fluoro-6-methoxyphenyl)-1H-pyrazolo[3,4-c]pyridin-3-yl)-3-morpholinobenzamide], the pKi was no less than 7.00.
